US12559492B2, “BRAF degraders” (C4 Therapeutics, Inc., priority 2020, dated 2026)

Biological target: BRAF^V600E protein (Homo sapiens, UniProt P15056, V600E)
Experiment: HiBiT cellular BRAF V600E degradation assay
Assay type: cell-based
Conditions: 24 h incubation; for DC50: A375.10 cells (HiBiT tag knocked in at N-terminal of BRAF V600E), concentration at which 50% of total cellular BRAF V600E is degraded; for Emax: read-out: HiBit 24 h Emax
[1] = A375.10 cells, Emax = amount of residual protein remaining in the cell after compound treatment

BRAF^V600E protein, sequence (P15056 whole entry V600E): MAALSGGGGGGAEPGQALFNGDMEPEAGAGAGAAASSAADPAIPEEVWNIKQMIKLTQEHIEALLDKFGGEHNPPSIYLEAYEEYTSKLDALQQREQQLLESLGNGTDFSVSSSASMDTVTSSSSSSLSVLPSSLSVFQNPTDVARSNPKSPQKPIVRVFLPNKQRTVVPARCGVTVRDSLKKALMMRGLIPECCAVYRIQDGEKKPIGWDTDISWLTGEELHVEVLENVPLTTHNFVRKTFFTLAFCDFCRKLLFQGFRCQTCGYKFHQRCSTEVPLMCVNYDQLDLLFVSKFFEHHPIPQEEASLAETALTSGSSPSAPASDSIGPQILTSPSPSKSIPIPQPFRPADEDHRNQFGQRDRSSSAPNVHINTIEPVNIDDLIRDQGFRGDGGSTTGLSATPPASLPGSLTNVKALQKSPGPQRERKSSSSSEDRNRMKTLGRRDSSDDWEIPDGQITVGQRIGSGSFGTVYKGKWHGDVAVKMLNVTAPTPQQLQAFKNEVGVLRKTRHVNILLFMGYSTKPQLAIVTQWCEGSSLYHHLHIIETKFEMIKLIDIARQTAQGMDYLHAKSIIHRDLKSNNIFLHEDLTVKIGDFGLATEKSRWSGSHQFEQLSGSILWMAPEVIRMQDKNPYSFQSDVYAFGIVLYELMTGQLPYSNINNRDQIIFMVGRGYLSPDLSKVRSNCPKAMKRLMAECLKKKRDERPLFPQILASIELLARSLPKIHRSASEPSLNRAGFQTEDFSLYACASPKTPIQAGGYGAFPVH

Structure (SMILES) | DC50 [nM] | Emax [1] [%] | HiBit 24 h Emax [1] [%]
O=C1CCC(Nc2ccc(C3CCN(CC(=O)N4CC5(C4)CN(c4ncc(-c6cnc7[nH]cc(C(=O)c8c(F)ccc(NS(=O)(=O)N9CCCC9)c8F)c7c6)cn4)C5)CC3)cc2)C(=O)N1 (centres unmarked) [Example A120, N-[3-[5-[2-[2-[2-[4-[4-[(2,6-Dioxopiperidin-3-yl)amino]phenyl]piperidin-1-yl]acetyl]-2,6-diazaspiro[3.3]heptan-6-yl]pyrimidin-5-yl]-1H-pyrrolo[2,3-b]pyridine-3-carbonyl]-2,4-difluorophenyl]pyrrolidine-1-sulfonamide] | 8 | 8 | 
CCN(C)S(=O)(=O)Nc1ccc(F)c(C(=O)c2c[nH]c3ncc(-c4ccc(N5CCN(C(=O)CN6CCC(c7ccc(O[C@H]8CCC(=O)NC8=O)cc7)CC6)CC5)nc4)cc23)c1F [Example A121, 5-[6-[4-[2-[4-[4-[(3S)-2,6-Dioxopiperidin-3-yl]oxyphenyl]piperidin-1-yl]acetyl]piperazin-1-yl]pyridin-3-yl]-3-[3-[[ethyl(methyl)sulfamoyl]amino]-2,6-difluorobenzoyl]-1H-pyrrolo[2,3-b]pyridine] | 12 | 8 | 
CCN(C)S(=O)(=O)Nc1ccc(F)c(C(=O)c2c[nH]c3ncc(-c4ccc(N5CCN(C(=O)CN6CCC(c7ccc(O[C@@H]8CCC(=O)NC8=O)cc7)CC6)CC5)nc4)cc23)c1F [Example A122, 5-[6-[4-[2-[4-[4-[(3R)-2,6-Dioxopiperidin-3-yl]oxyphenyl]piperidin-1-yl]acetyl]piperazin-1-yl]pyridin-3-yl]-3-[3-[[ethyl(methyl)sulfamoyl]amino]-2,6-difluorobenzoyl]-1H-pyrrolo[2,3-b]pyridine] | 32 | 9 | 
CCN(C)S(=O)(=O)Nc1ccc(F)c(C(=O)c2c[nH]c3ncc(-c4cnc(N5CCN(C(=O)NC6CCN(c7ccc(NC8CCC(=O)NC8=O)cc7F)CC6)CC5)nc4)cc23)c1F.O=C(O)C(F)(F)F (centres unmarked) [Example A123, N-[1-[4-[(2,6-Dioxopiperidin-3-yl)amino]-2-fluorophenyl]piperidin-4-yl]-4-[5-[3-[3-[[ethyl(methyl)sulfamoyl]amino]-2,6-difluorobenzoyl]-1H-pyrrolo[2,3-b]pyridin-5-yl]pyrimidin-2-yl]piperazine-1-carboxamide; 2,2,2-trifluoroacetic acid] | 10 |  | 8
